# Assay results from US10681909B2, “Herbicidal triazoles” (FMC Corporation, priority 2014, dated 2020).
# Assays:
# crabgrass, large = assay: Test A preemergence; format: in vivo, Digitaria sanguinalis; settings: Digitaria sanguinalis, pre-emergence, 240 h, 0 to 100 scale (0 no effect, 100 complete control), read-out: Plant response rating, Crabgrass, Large; for pest or weed control at 125 g/ha: 125 g ai/ha; for pest or weed control at 500 g/ha: 500 g ai/ha, approx. 10 d
# How it was run: (§1)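 Plant seeds in loam soil blended with sand, then apply test chemical preemergence as a directed soil spray; in parallel, spray potted seedlings (one- to two-leaf, 2 to 10 cm) postemergence. Both treatments use a non-phytotoxic solvent mixture with surfactant.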
# morningglory = assay: Test A preemergence; format: in vivo, Ipomoea spp.; settings: Ipomoea, pre-emergence, 240 h, 0 to 100 scale (0 no effect, 100 complete control), read-out: Plant response rating, Morningglory; for pest or weed control at 125 g/ha: 125 g ai/ha; for pest or weed control at 500 g/ha: 500 g ai/ha, approx. 10 d
# How it was run: as §1
# blackgrass = assay: Test A postemergence; format: in vivo, Alopecurus myosuroides; settings: 0 to 100 scale (0 no effect, 100 complete control), approx. 10 d
# How it was run: (§2)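 Visual injury score, 0 (no effect) to 100 (complete control), taken about 10 d after treatment against untreated greenhouse controls. Chemicals formulated in non-phytotoxic solvent plus surfactant; preemergence by directed soil spray onto sown loam/sand, postemergence onto one- to two-leaf plants.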
# ryegrass, Italian = assay: Test A postemergence; format: in vivo, Lolium multiflorum; settings: 0 to 100 scale (0 no effect, 100 complete control), approx. 10 d
# How it was run: as §2
# ragweed = assay: Test A postemergence; format: in vivo, Ambrosia elatior; settings: 0 to 100 scale (0 no effect, 100 complete control), approx. 10 d
# How it was run: as §2
# bluegrass = assay: Test D preemergence; format: in vivo, Poa annua; settings: scale 0 to 100
# Source text: (§3) Seeds of plant species selected from bluegrass (annual bluegrass, Poa annua), blackgrass (Alopecurus myosuroides), canarygrass (Phalaris minor), chickweed (common chickweed, Stellaria media), galium (catchweed bedstraw, Galium aparine), bromegrass, down (downy bromegrass, Bromus tectorum), Russian thistle (Salsola kali), field poppy (Papaver rhoeas), field violet (Viola arvensis), foxtail, green (green foxtail, Setaria viridis), deadnettle (henbit deadnettle, Lamium amplexicaule), ryegrass, Ital. (Italian ryegrass, Lolium multiflorum), kochia (Kochia scoparia), lambsquarters (Chenopodium album), oilseed rape (Brassica napus), pigweed (Amaranthus retroflexus), chamomile (scentless chamomile, Matricaria inodora), speedwell (bird's-eye speedwell, Veronica persica), barley, spring (spring barley, Hordeum vulgare), wheat, spring (spring wheat, Triticum aestivum), buckwheat, wild (wild buckwheat, Polygonum convolvulus), wild mustard (Sinapis arvensis), oat, wild (wild oat, Avena fatua), radish, wild (wild radish, Raphanus raphanistrum), […]), barley, winter (winter barley, Hordeum vulgare), and wheat, winter (winter wheat, Triticum aestivum) were planted into a silt loam soil and treated preemergence with test chemicals formulated in a non-phytotoxic solvent mixture which included a surfactant. At the same time, these species were planted in pots containing Sunshine Redi-Earth® planting medium comprising spaghnum peat moss, vermiculite, starter nutrients and dolomitic limestone and treated with postemergence applications of the test chemicals formulated in the same manner. Plants ranged in height from 2 to 18 cm (1- to 4-leaf stage). Treated plants and controls were maintained in a controlled growth environment for 14 to 21 d after which time all species were compared to controls and visually evaluated. […] A dash (-) response means no test result.
# windgrass = assay: Test D postemergence; format: in vivo, Apera spica-venti; settings: scale 0 to 100
# Source text: as §3
# field poppy = assay: Test D preemergence; format: in vivo, Papaver rhoeas; settings: scale 0 to 100
# Source text: as §3
# canarygrass = assay: Test D preemergence; format: in vivo, Phalaris minor; settings: scale 0 to 100
# Source text: as §3
# barley, spring = assay: Test D postemergence; format: in vivo, Hordeum vulgare; settings: scale 0 to 100
# Source text: as §3
# barley, winter = assay: Test D postemergence; format: in vivo, Hordeum vulgare; settings: scale 0 to 100
# Source text: as §3
# deadnettle = assay: Test D postemergence; format: in vivo, Lamium amplexicaule; settings: scale 0 to 100
# Source text: as §3
smiles,measurement,setting,value
"CCn1nc(-c2ccc(F)cc2)nc1C(=O)c1ccnc(C(F)(F)F)c1 [Compound 19, [1-ethyl-3-(4-fluorophenyl)-1H-1,2,4-triazol-5-yl][2-(trifluoromethyl)-4-pyridinyl]methanone]",pest or weed control at 125 g/ha,"crabgrass, large",0%
same,pest or weed control at 500 g/ha,"crabgrass, large",50%
same,pest or weed control at 125 g/ha,morningglory,0%
same,pest or weed control at 500 g/ha,morningglory,0%
"CCCc1nc(-c2ccc(F)cc2)nn1Cc1ccnc(C(F)(F)F)c1 [Compound 6, 4-[[3-(4-fluorophenyl)-5-propyl-1H-1,2,4-triazol-1-yl]methyl]-2-(trifluoromethyl)pyridine]",pest or weed control at 125 g/ha,"crabgrass, large",100%
same,pest or weed control at 500 g/ha,"crabgrass, large",100%
same,pest or weed control at 125 g/ha,morningglory,50%
same,pest or weed control at 500 g/ha,morningglory,100%
CCOc1nc(-c2ccc(Cl)cc2)nn1Cc1ccnc(C(F)(F)F)c1 [Compound 26],"Plant response rating, Blackgrass",blackgrass; 31 g ai/ha,30
same,"Plant response rating, Blackgrass",blackgrass; 125 g ai/ha,50
same,"Plant response rating, Ryegrass, Italian","ryegrass, Italian; 31 g ai/ha",20
same,"Plant response rating, Ryegrass, Italian","ryegrass, Italian; 125 g ai/ha",50
same,"Plant response rating, Ragweed",ragweed; 31 g ai/ha,30
same,"Plant response rating, Ragweed",ragweed; 125 g ai/ha,50
"CCOc1nc(-c2ccc(F)cc2)nn1Cc1ccnc(C(F)(F)F)c1 [Compound 8, 4-[[5-ethoxy-3-(4-fluorophenyl)-1H-1,2,4-triazol-1-yl]methyl]-2-(trifluoromethyl)pyridine]",Plant response rating: Bluegrass,bluegrass; 31 g ai/ha,70
same,Plant response rating: Bluegrass,bluegrass; 62 g ai/ha,70
same,Plant response rating: Bluegrass,bluegrass; 125 g ai/ha,100
same,Plant response rating: Bluegrass,bluegrass; 250 g ai/ha,100
same,Plant response rating: Windgrass,windgrass; 31 g ai/ha,40
same,Plant response rating: Windgrass,windgrass; 62 g ai/ha,60
same,Plant response rating: Windgrass,windgrass; 125 g ai/ha,75
same,Plant response rating: Windgrass,windgrass; 250 g ai/ha,85
same,Plant response rating: Field Poppy,field poppy; 62 g ai/ha,100
same,Plant response rating: Field Poppy,field poppy; 125 g ai/ha,100
same,Plant response rating: Field Poppy,field poppy; 250 g ai/ha,100
same,pest or weed control at 125 g/ha,"crabgrass, large",100%
same,pest or weed control at 500 g/ha,"crabgrass, large",100%
same,pest or weed control at 125 g/ha,morningglory,100%
same,pest or weed control at 500 g/ha,morningglory,100%
same,Plant response rating: Canarygrass,canarygrass; 31 g ai/ha,50
same,Plant response rating: Canarygrass,canarygrass; 62 g ai/ha,100
same,Plant response rating: Canarygrass,canarygrass; 125 g ai/ha,100
same,Plant response rating: Canarygrass,canarygrass; 250 g ai/ha,100
same,"Plant response rating: Barley, Spring","barley, spring; 31 g ai/ha",25
same,"Plant response rating: Barley, Spring","barley, spring; 62 g ai/ha",30
same,"Plant response rating: Barley, Spring","barley, spring; 125 g ai/ha",35
same,"Plant response rating: Barley, Spring","barley, spring; 250 g ai/ha",35
same,"Plant response rating: Barley, Winter","barley, winter; 31 g ai/ha",20
same,"Plant response rating: Barley, Winter","barley, winter; 62 g ai/ha",30
same,"Plant response rating: Barley, Winter","barley, winter; 125 g ai/ha",35
same,"Plant response rating: Barley, Winter","barley, winter; 250 g ai/ha",35
same,Plant response rating: Deadnettle,deadnettle; 31 g ai/ha,75
same,Plant response rating: Deadnettle,deadnettle; 62 g ai/ha,80
same,Plant response rating: Deadnettle,deadnettle; 125 g ai/ha,95
same,Plant response rating: Deadnettle,deadnettle; 250 g ai/ha,90
COc1nc(-c2ccc(C(F)(F)F)cc2)nn1Cc1ccnc(C(F)(F)F)c1 [Compound 25],"Plant response rating, Blackgrass",blackgrass; 31 g ai/ha,10
same,"Plant response rating, Blackgrass",blackgrass; 125 g ai/ha,30
same,"Plant response rating, Ryegrass, Italian","ryegrass, Italian; 31 g ai/ha",10
same,"Plant response rating, Ryegrass, Italian","ryegrass, Italian; 125 g ai/ha",30
same,"Plant response rating, Ragweed",ragweed; 31 g ai/ha,20
same,"Plant response rating, Ragweed",ragweed; 125 g ai/ha,30
"CS(=O)(=O)c1nc(-c2ccc(F)cc2)nn1Cc1ccnc(C(F)(F)F)c1 [Compound 29, 4-[[3-(4-fluorophenyl)-5-(methylsulfonyl)-1H-1,2,4-triazole-1-yl]methyl]-2-(trifluoromethyl)pyridine]",pest or weed control at 125 g/ha,"crabgrass, large",0%
same,pest or weed control at 500 g/ha,"crabgrass, large",0%
same,pest or weed control at 125 g/ha,morningglory,0%
same,pest or weed control at 500 g/ha,morningglory,0%
"CCn1nc(-c2ccc(F)cc2)nc1C(O)c1ccnc(C(F)(F)F)c1 (stereo not drawn) [Compound 15, α-[1-Ethyl-3-(4-fluorophenyl)-1H-1,2,4-triazol-5-yl]-2-(trifluoromethyl)-4-pyridinemethanol]",pest or weed control at 125 g/ha,"crabgrass, large",10%
same,pest or weed control at 500 g/ha,"crabgrass, large",30%
same,pest or weed control at 125 g/ha,morningglory,0%
same,pest or weed control at 500 g/ha,morningglory,0%
"Cn1nc(-c2ccc(F)cc2)nc1Oc1cccc(C(F)(F)F)c1 [Compound 5, 3-(4-fluorophenyl)-1-methyl-5-[3-(trifluoromethyl)phenoxy]-1H-1,2,4-triazole]",pest or weed control at 125 g/ha,"crabgrass, large",70%
same,pest or weed control at 500 g/ha,"crabgrass, large",100%
same,pest or weed control at 125 g/ha,morningglory,0%
same,pest or weed control at 500 g/ha,morningglory,0%
"COc1nc(-c2ccc(F)cc2)nn1Cc1ccnc(C(F)(F)F)c1 [Compound 9, 4-[[3-(4-fluorophenyl)-5-methoxy-1H-1,2,4-triazol-1-yl]methyl]-2-(trifluoromethyl)pyridine]",pest or weed control at 125 g/ha,"crabgrass, large",100%
same,pest or weed control at 500 g/ha,"crabgrass, large",100%
same,pest or weed control at 125 g/ha,morningglory,10%
same,pest or weed control at 500 g/ha,morningglory,90%
COc1nc(-c2ccccc2)nn1Cc1ccnc(C(F)(F)F)c1 [Compound 32],"Plant response rating, Blackgrass",blackgrass; 125 g ai/ha,20
same,"Plant response rating, Blackgrass",blackgrass; 500 g ai/ha,50
same,"Plant response rating, Ryegrass, Italian","ryegrass, Italian; 125 g ai/ha",0
same,"Plant response rating, Ryegrass, Italian","ryegrass, Italian; 500 g ai/ha",50
same,"Plant response rating, Ragweed",ragweed; 125 g ai/ha,30
same,"Plant response rating, Ragweed",ragweed; 500 g ai/ha,70
"CCc1nc(-c2ccc(C(F)(F)F)cc2)nn1Cc1ccnc(C(F)(F)F)c1 [Compound 1, 4-[[5-ethyl-3-[4-(trifluoromethyl)phenyl]-1H-1,2,4-triazol-1-yl]methyl]-2-(trifluoromethyl)pyridine]",Plant response rating: Bluegrass,bluegrass; 31 g ai/ha,10
same,Plant response rating: Bluegrass,bluegrass; 62 g ai/ha,35
same,Plant response rating: Bluegrass,bluegrass; 125 g ai/ha,60
same,Plant response rating: Bluegrass,bluegrass; 250 g ai/ha,100
same,Plant response rating: Windgrass,windgrass; 31 g ai/ha,15
same,Plant response rating: Windgrass,windgrass; 62 g ai/ha,20
same,Plant response rating: Windgrass,windgrass; 125 g ai/ha,30
same,Plant response rating: Windgrass,windgrass; 250 g ai/ha,60
same,Plant response rating: Field Poppy,field poppy; 62 g ai/ha,100
same,Plant response rating: Field Poppy,field poppy; 125 g ai/ha,100
same,Plant response rating: Field Poppy,field poppy; 250 g ai/ha,100
same,pest or weed control at 125 g/ha,"crabgrass, large",100%
same,pest or weed control at 500 g/ha,"crabgrass, large",100%
same,pest or weed control at 125 g/ha,morningglory,30%
same,pest or weed control at 500 g/ha,morningglory,80%
same,Plant response rating: Canarygrass,canarygrass; 31 g ai/ha,5
same,Plant response rating: Canarygrass,canarygrass; 62 g ai/ha,30
same,Plant response rating: Canarygrass,canarygrass; 125 g ai/ha,60
same,Plant response rating: Canarygrass,canarygrass; 250 g ai/ha,100
same,"Plant response rating: Barley, Spring","barley, spring; 31 g ai/ha",20
same,"Plant response rating: Barley, Spring","barley, spring; 62 g ai/ha",35
same,"Plant response rating: Barley, Spring","barley, spring; 125 g ai/ha",35
same,"Plant response rating: Barley, Spring","barley, spring; 250 g ai/ha",40
same,"Plant response rating: Barley, Winter","barley, winter; 31 g ai/ha",20
same,"Plant response rating: Barley, Winter","barley, winter; 62 g ai/ha",25
same,"Plant response rating: Barley, Winter","barley, winter; 125 g ai/ha",35
same,"Plant response rating: Barley, Winter","barley, winter; 250 g ai/ha",40
same,Plant response rating: Deadnettle,deadnettle; 31 g ai/ha,65
same,Plant response rating: Deadnettle,deadnettle; 62 g ai/ha,60
same,Plant response rating: Deadnettle,deadnettle; 125 g ai/ha,70
same,Plant response rating: Deadnettle,deadnettle; 250 g ai/ha,85
CCCOc1nc(-c2ccccc2)nn1Cc1ccnc(C(F)(F)F)c1 [Compound 33],"Plant response rating, Blackgrass",blackgrass; 125 g ai/ha,30
same,"Plant response rating, Blackgrass",blackgrass; 500 g ai/ha,50
same,"Plant response rating, Ryegrass, Italian","ryegrass, Italian; 125 g ai/ha",10
same,"Plant response rating, Ryegrass, Italian","ryegrass, Italian; 500 g ai/ha",40
same,"Plant response rating, Ragweed",ragweed; 125 g ai/ha,30
same,"Plant response rating, Ragweed",ragweed; 500 g ai/ha,50
"Cn1nc(-c2ccc(F)cc2)nc1C(O)c1ccnc(C(F)(F)F)c1 (stereo not drawn) [Compound 14, α-[3-(4-fluorophenyl)-1-methyl-1H-1,2,4-triazol-5-yl]-2-(trifluoromethyl)-4-pyridinemethanol]",pest or weed control at 125 g/ha,"crabgrass, large",60%
same,pest or weed control at 500 g/ha,"crabgrass, large",100%
same,pest or weed control at 125 g/ha,morningglory,0%
same,pest or weed control at 500 g/ha,morningglory,0%
"CCCn1nc(-c2ccc(F)cc2)nc1Cc1ccnc(C(F)(F)F)c1 [Compound 17, 4-[[3-(4-fluorophenyl)-1-propyl-1H-1,2,4-triazol-5-yl]methyl]-2-(trifluoromethyl)pyridine]",pest or weed control at 125 g/ha,"crabgrass, large",100%
same,pest or weed control at 500 g/ha,"crabgrass, large",100%
same,pest or weed control at 125 g/ha,morningglory,70%
same,pest or weed control at 500 g/ha,morningglory,90%
